The values that follow come from patent US20100016546A1, “Therapeutic Peptide-Polysaccharide Biomaterials” (priority 2005, published 2010).

Like-named read-outs stand apart in the source and are kept apart here. No end group written: not given here.

Data set [1] deals with E. coli BL21(DE3). The format is cell-based. The conditions noted are these: for Measured Potency: Free Peptide (LC90) / Measured Potency: Peptide/Agarose Conjugate (LC90): E. coli (BL21 (DE3)); for Measured Potency: Peptide/Agarose Conjugate (LC90): effective peptide concentration. Here is the method:
Overall, antimicrobial activity can be evaluated by incubating small cultures of E. coli (BL21) at 37° C. with agitation (e.g., ˜3 to ˜5 hrs) in minimal media in the presence/absence of varied amounts of peptide conjugate or free peptide. Aliquots can be collected at predetermined time points to determine the cell density. One OD600 of the solution=2×10^9 CFU/ml. Correlating changes in cell density between cultures incubated with varied amounts of conjugate and cultures grown in the absence of conjugates can provide a means of evaluating the antimicrobial potency of the varied constructs. Assays such as this one are known to be used in evaluating the potency of antimicrobial peptidomimetics and biomaterials.
In one embodiment, the antimicrobial activity of the free peptides and conjugates have been assayed against E. coli BL21(DE3) cultures. In this assay, the bacteria (at ˜1×10^6 CFU/ml) are incubated for 2 hours at 37° C. in 10 mM phosphate (e.g., Na2HPO4) buffer (pH ˜7.5) with varied concentrations of peptide or peptide-conjugate. After this time, 20 μl aliquots of each culture and serial dilutions of the culture are plated onto LB agar plates and incubated over night at 37° C. The number of colonies on these plates is then counted and the survival percentage is determined relative to a control culture. The example contained no peptide.
In another embodiment, a stock solution containing 1 mg of peptide per ml solution may be prepared. Using the stock peptide (1 mg/ml) solution, assays may be prepared (volume of ˜100 μl) at 1 μg/ml, 10 μg/ml, and 100 μg/ml of free peptide (e.g., HBD-332-45). In the control sample, 10 μl of 100 mM phosphate buffer, 80 μl of sterile water and 10 μl of cell cultures may be combined and incubated without peptide for two hours at 37° C. After two hours incubation, 20 μl aliquots of the above solutions, and 1:10, and 1:100 dilutions of each may be plated in LB-agar plates and incubated over night at 37° C.
In another embodiment, peptide conjugate (e.g., HBD-332-45-agarose) with a loading of 3.82 μg of peptide/1 μl of resin may also be assayed at effective peptide concentrations of 1 μg/ml, 10 μg/ml, 25 μg/ml, 50 μg/ml, 75 μg/ml and 100 μg/ml. For example, an effective peptide concentration of 100 μg/ml of suspension may be prepared by using 52.2 μl of a 50% suspension of 3.82 μg/μl of peptide suspension (100 μg×[1 μl/3.82 μg]=26.1 μl). Samples containing varying concentrations of peptide conjugate may be combined with 10 μl of 100 mM phosphate buffer having a pH of about 7.5, 10 μl of cell cultures (˜1×10^7 CFU/ml), and the required volume of sterile water to bring a total volume of 100 μl. This combination may be incubated at 37° C. with agitation for two hours. After incubation, 20 μl of each cell culture and 1:10 and 1:100 dilutions of each cell culture may be plated on LB-agar plates and incubated at 37° C. overnight. Similar protocols may be used to evaluate the antimicrobial activity of the HBD-336-45 peptide and corresponding conjugate. […]
The results of the antimicrobial assay using free HBD-332-45 and agarose conjugate can be seen in FIG. 17. Antimicrobial activity of free HBD-332-45 is given on the left and that of the HBD-332-45 peptide-conjugate is shown on the right. E. coli at 1×10^6 CFU/ml were incubated with varied peptide concentrations (free peptide and peptide conjugate). Serial dilutions (0.1× and 0.01×) of cell cultures in all plates are shown across the figure.

The test system of data set [2] is E. coli BL21(DE3). Particulars: cited from earlier work.
The subject of data set [3] is E. coli. Particulars: free peptide; cited from earlier work.

With “KSSTRGRKSSRRKK-OH [HBD-332-45, KSSTRGRKSSRRKK]”, the “Measured Potency: Peptide/Agarose Conjugate (LC50)” value in data set [1] (Escherichia coli, 2 h, pH 7.5) was ~10 μg/ml (LC50). Further, the bacteria killed in data set [1] (free peptide, 1 μg/ml, E. coli 1×10^6 CFU/ml, 2 h) is listed as about 93%. In addition, the microbicidal efficiency in data set [1] (free peptide, 10 μg/ml) is listed as over 99%; in data set [1] (free peptide, 100 μg/ml), over 99%. The “Measured Potency: Free Peptide (LC90)” value in data set [1] (free peptide) amounted to 0.20 µg/mL. In addition, the “Measured Potency: Peptide/Agarose Conjugate (LC90)” value in data set [1] is about 75 µg/mL. Besides, in data set [2], the “Reported Potency: Free Peptide (LC90)” value was about 1 µg/mL. Moreover, in data set [3], the “antimicrobial activity against E. coli” value is 1 ± 0.1 mg/mL.
Turning to “RGRRSSRRKK-NH2 [HBD-336-45(Rev2), RGRRSSRRKK-NH2]”, the “Measured Potency: Free Peptide (LC90)” value in data set [1] (free peptide) was 0.15 µg/mL. Further, the “Measured Potency: Peptide/Agarose Conjugate (LC90)” value in data set [1] is about 26 µg/mL.
Consider RGRKSSRRKK-OH [HBD-336-45, RGRKSSRRKK], for which the “reduction in the number of colonies” value is about 67% in data set [1] (free peptide, 1 μg/ml) and about 97% in data set [1] (free peptide, 10 μg/ml). The “Measured Potency: Free Peptide (LC90)” value in data set [1] (free peptide) is 2.23 µg/mL. In data set [1], the “Measured Potency: Peptide/Agarose Conjugate (LC90)” value is over 100 μg/m μg/ml. Also, the “Reported Potency: Free Peptide (LC90)” value in data set [2] is about 4 µg/mL.
